Test results taken from the OligoGym collection.
Where “and” joins values, the source holds several entries; their conditions need not be identical. Equal entries are not always repeated. HELM strings list units from the 5' end as sugar, base in round brackets, then linkage (d deoxyribose, r ribose, m 2'-O-methyl, p phosphodiester). Strings are as the collection lists them, not checked against the first reports. ss, as = sense and antisense strand; [fl2r] = 2'-fluoro
Further: test system not given here.

Conditions: siRNA
In the case of “RNA1{[fl2r](A)p.[fl2r](A)p.r(C)p.r(C)p.r(C)p.[fl2r](A)p.r(C)p.r(C)p.[fl2r](A)p.r(C)p.[fl2r](A)p.r(G)p.r(C)p.[fl2r](U)p.[fl2r](A)p.r(G)p.[fl2r](A)p.[fl2r](A)p.r(C)p.[fl2r](U)p.[fl2r](U)}|RNA2{r(A)p.r(A)p.r(G)p.r(U)p.r(U)p.r(C)p.r(U)p.r(A)p.r(G)p.r(C)p.r(U)p.r(G)p.r(U)p.r(G)p.r(G)p.r(U)p.r(G)p.r(G)p.r(G)p.r(U)p.r(U)}$$$RNA1{StrandType:ss}|RNA2{StrandType:as}$”, the target mRNA knockdown is reported as 37% and 54%. For “RNA1{[fl2r](A)p.r(A)p.[fl2r](A)p.r(C)p.[fl2r](C)p.r(A)p.[fl2r](G)p.r(G)p.[fl2r](A)p.r(A)p.[fl2r](G)p.r(G)p.[fl2r](G)p.r(G)p.[fl2r](A)p.r(A)p.[fl2r](A)p.r(U)p.[fl2r](C)p.r(T)p.r(T)}|RNA2{r(G)p.[fl2r](A)p.r(U)p.r(U)p.r(U)p.r(C)p.r(C)p.r(C)p.r(C)p.r(U)p.r(U)p.r(C)p.r(C)p.r(U)p.r(G)p.r(G)p.r(U)p.r(U)p.r(U)p.r(T)p.r(T)}$$$RNA1{StrandType:ss}|RNA2{StrandType:as}$”, the target mRNA knockdown was 42%. “RNA1{[fl2r](A)p.r(A)p.[fl2r](C)p.r(C)p.[fl2r](C)p.r(A)p.[fl2r](C)p.r(C)p.[fl2r](A)p.r(C)p.[fl2r](A)p.r(G)p.[fl2r](C)p.r(U)p.[fl2r](A)p.r(G)p.[fl2r](A)p.r(A)p.[fl2r](C)p.r(U)p.r(U)}|RNA2{[fl2r](G)p.r(U)p.r(U)p.r(C)p.r(U)p.r(A)p.[fl2r](G)p.r(C)p.r(U)p.[fl2r](G)p.r(U)p.[fl2r](G)p.[fl2r](G)p.r(U)p.[fl2r](G)p.[fl2r](G)p.[fl2r](G)p.r(U)p.r(U)p.r(U)p.r(U)}$$$RNA1{StrandType:ss}|RNA2{StrandType:as}$” showed a target mRNA knockdown of 57%. Substance “RNA1{[fl2r](A)p.r(A)p.[fl2r](C)p.r(U)p.[fl2r](C)p.r(U)p.[fl2r](A)p.r(C)p.[fl2r](U)p.r(G)p.[fl2r](U)p.r(G)p.[fl2r](G)p.r(A)p.[fl2r](G)p.r(U)p.[fl2r](C)p.r(G)p.[fl2r](G)p.r(T)p.r(T)}|RNA2{r(C)p.r(C)p.[fl2r](G)p.r(A)p.r(C)p.r(U)p.r(C)p.r(C)p.r(A)p.r(C)p.r(A)p.[fl2r](G)p.r(U)p.r(A)p.[fl2r](G)p.r(A)p.[fl2r](G)p.r(U)p.r(U)p.r(T)p.r(T)}$$$RNA1{StrandType:ss}|RNA2{StrandType:as}$” has a target mRNA knockdown of 25%. For “RNA1{[fl2r](A)p.r(A)p.[fl2r](G)p.r(G)p.[fl2r](A)p.r(C)p.[fl2r](C)p.r(U)p.[fl2r](A)p.r(G)p.[fl2r](A)p.r(G)p.[fl2r](G)p.r(A)p.[fl2r](G)p.r(U)p.[fl2r](C)p.r(A)p.r(C)p.r(T)p.r(T)}|RNA2{r(G)p.r(U)p.r(G)p.r(A)p.r(C)p.r(U)p.r(C)p.r(C)p.r(U)p.r(C)p.r(U)p.r(A)p.r(G)p.r(G)p.r(U)p.r(C)p.r(C)p.r(U)p.r(U)p.r(T)p.r(T)}$$$RNA1{StrandType:ss}|RNA2{StrandType:as}$”, the target mRNA knockdown was 31%. In the case of “RNA1{[fl2r](A)p.r(A)p.[fl2r](G)p.r(G)p.[fl2r](C)p.r(C)p.[fl2r](A)p.r(A)p.[fl2r](C)p.r(C)p.[fl2r](G)p.r(A)p.[fl2r](U)p.r(A)p.[fl2r](C)p.r(U)p.[fl2r](U)p.r(C)p.[fl2r](U)p.r(T)p.r(T)}|RNA2{r(A)p.r(G)p.r(A)p.r(A)p.r(G)p.[fl2r](U)p.r(A)p.[fl2r](U)p.r(C)p.r(G)p.r(G)p.[fl2r](U)p.[fl2r](U)p.r(G)p.r(G)p.r(C)p.r(C)p.[fl2r](U)p.[fl2r](U)p.r(T)p.r(T)}$$$RNA1{StrandType:ss}|RNA2{StrandType:as}$”, the target mRNA knockdown is reported as 46%. In the case of “RNA1{[fl2r](A)p.r(A)p.[fl2r](G)p.r(U)p.[fl2r](A)p.r(G)p.[fl2r](U)p.r(C)p.[fl2r](C)p.r(C)p.[fl2r](C)p.r(C)p.[fl2r](U)p.r(U)p.[fl2r](G)p.r(A)p.[fl2r](A)p.r(G)p.r(A)p.r(T)p.r(T)}|RNA2{r(U)p.r(C)p.r(U)p.r(U)p.r(C)p.r(A)p.r(A)p.r(G)p.r(G)p.r(G)p.r(G)p.r(G)p.r(A)p.r(C)p.r(U)p.r(A)p.r(C)p.r(U)p.r(U)p.r(T)p.r(T)}$$$RNA1{StrandType:ss}|RNA2{StrandType:as}$”, the target mRNA knockdown is reported as 53%. In the case of “RNA1{[fl2r](A)p.r(C)p.[fl2r](A)p.r(U)p.[fl2r](A)p.r(G)p.[fl2r](A)p.r(G)p.[fl2r](G)p.r(A)p.[fl2r](A)p.r(G)p.r(A)p.r(C)p.r(G)p.r(C)p.r(G)p.r(G)p.r(A)p.r(T)p.r(T)}|RNA2{[fl2r](U)p.r(C)p.[fl2r](C)p.r(G)p.[fl2r](C)p.r(G)p.[fl2r](U)p.r(C)p.[fl2r](U)p.r(U)p.[fl2r](C)p.r(C)p.[fl2r](U)p.r(C)p.[fl2r](U)p.r(A)p.[fl2r](U)p.r(G)p.r(U)p.r(T)p.r(T)}$$$RNA1{StrandType:ss}|RNA2{StrandType:as}$”, the target mRNA knockdown is reported as 57%. Work on “RNA1{[fl2r](A)p.r(C)p.[fl2r](C)p.r(U)p.[fl2r](U)p.r(A)p.[fl2r](A)p.r(G)p.[fl2r](G)p.r(A)p.[fl2r](C)p.r(C)p.[fl2r](A)p.r(C)p.[fl2r](C)p.r(G)p.[fl2r](G)p.r(A)p.[fl2r](U)p.r(T)p.r(T)}|RNA2{[fl2r](A)p.r(U)p.r(C)p.r(C)p.r(G)p.r(G)p.r(U)p.r(G)p.r(G)p.r(U)p.r(C)p.r(C)p.r(U)p.r(U)p.[fl2r](A)p.[fl2r](A)p.r(G)p.r(G)p.r(U)p.r(T)p.r(T)}$$$RNA1{StrandType:ss}|RNA2{StrandType:as}$” yielded a target mRNA knockdown of 41%. Substance “RNA1{[fl2r](A)p.r(C)p.[fl2r](G)p.r(G)p.[fl2r](C)p.r(U)p.[fl2r](C)p.r(G)p.[fl2r](C)p.r(U)p.[fl2r](A)p.r(C)p.[fl2r](C)p.r(C)p.[fl2r](U)p.r(C)p.[fl2r](G)p.r(A)p.r(C)p.r(T)p.r(T)}|RNA2{r(G)p.r(U)p.r(C)p.r(G)p.r(A)p.r(G)p.r(G)p.r(G)p.r(U)p.r(A)p.r(G)p.r(C)p.r(G)p.r(A)p.r(G)p.r(C)p.r(C)p.r(G)p.r(U)p.r(T)p.r(T)}$$$RNA1{StrandType:ss}|RNA2{StrandType:as}$” has a target mRNA knockdown of 72%. “RNA1{[fl2r](A)p.r(G)p.[fl2r](A)p.r(A)p.[fl2r](G)p.r(U)p.[fl2r](A)p.r(C)p.[fl2r](C)p.r(A)p.[fl2r](G)p.r(G)p.[fl2r](A)p.r(G)p.[fl2r](G)p.r(C)p.[fl2r](G)p.r(U)p.[fl2r](U)p.r(T)p.r(T)}|RNA2{r(A)p.r(A)p.r(C)p.[fl2r](G)p.r(C)p.r(C)p.r(U)p.r(C)p.r(C)p.r(U)p.[fl2r](G)p.[fl2r](G)p.r(U)p.r(A)p.r(C)p.r(U)p.r(U)p.r(C)p.r(U)p.r(T)p.r(T)}$$$RNA1{StrandType:ss}|RNA2{StrandType:as}$” gave a target mRNA knockdown of 39%. Substance “RNA1{[fl2r](A)p.r(G)p.[fl2r](A)p.r(C)p.[fl2r](U)p.r(A)p.[fl2r](A)p.r(G)p.[fl2r](C)p.r(C)p.[fl2r](C)p.r(A)p.[fl2r](A)p.r(A)p.[fl2r](A)p.r(G)p.[fl2r](G)p.r(G)p.[fl2r](C)p.r(T)p.r(T)}|RNA2{r(G)p.r(C)p.r(C)p.r(C)p.r(U)p.r(U)p.r(U)p.r(U)p.r(G)p.r(G)p.r(G)p.r(C)p.r(U)p.r(U)p.r(A)p.r(G)p.r(U)p.r(C)p.r(U)p.r(T)p.r(T)}$$$RNA1{StrandType:ss}|RNA2{StrandType:as}$” has a target mRNA knockdown of 26%. Work on “RNA1{[fl2r](A)p.r(G)p.[fl2r](A)p.r(G)p.[fl2r](A)p.r(G)p.[fl2r](G)p.r(U)p.[fl2r](G)p.r(G)p.[fl2r](A)p.r(G)p.[fl2r](G)p.r(U)p.[fl2r](A)p.r(U)p.[fl2r](C)p.r(U)p.[fl2r](C)p.r(T)p.r(T)}|RNA2{r(G)p.[fl2r](A)p.r(G)p.[fl2r](A)p.r(U)p.[fl2r](A)p.r(C)p.r(C)p.r(U)p.r(C)p.r(C)p.[fl2r](A)p.r(C)p.r(C)p.r(U)p.r(C)p.r(U)p.r(C)p.r(U)p.r(T)p.r(T)}$$$RNA1{StrandType:ss}|RNA2{StrandType:as}$” yielded a target mRNA knockdown of 68%. “RNA1{[fl2r](A)p.r(G)p.[fl2r](C)p.r(C)p.[fl2r](C)p.r(A)p.[fl2r](G)p.r(A)p.[fl2r](U)p.r(A)p.[fl2r](G)p.r(C)p.[fl2r](U)p.r(C)p.[fl2r](U)p.r(U)p.[fl2r](C)p.r(A)p.[fl2r](G)p.r(T)p.r(T)}|RNA2{r(C)p.r(U)p.r(G)p.r(A)p.r(A)p.r(G)p.r(A)p.r(G)p.r(C)p.r(U)p.r(A)p.r(U)p.r(C)p.r(U)p.r(G)p.r(G)p.r(G)p.r(C)p.r(U)p.r(T)p.r(T)}$$$RNA1{StrandType:ss}|RNA2{StrandType:as}$” gave a target mRNA knockdown of 35%. With “RNA1{[fl2r](A)p.r(G)p.[fl2r](C)p.r(C)p.[fl2r](U)p.r(C)p.[fl2r](C)p.r(A)p.[fl2r](A)p.r(A)p.[fl2r](C)p.r(U)p.[fl2r](C)p.r(C)p.[fl2r](U)p.r(A)p.[fl2r](G)p.r(C)p.[fl2r](U)p.r(T)p.r(T)}|RNA2{r(A)p.r(G)p.r(C)p.r(U)p.r(A)p.r(G)p.r(G)p.r(A)p.r(G)p.r(U)p.r(U)p.r(U)p.r(G)p.r(G)p.r(A)p.r(G)p.r(G)p.r(C)p.r(U)p.r(T)p.r(T)}$$$RNA1{StrandType:ss}|RNA2{StrandType:as}$” the target mRNA knockdown was 16%. With “RNA1{[fl2r](A)p.r(G)p.[fl2r](G)p.r(A)p.[fl2r](G)p.r(A)p.[fl2r](C)p.r(C)p.[fl2r](G)p.r(U)p.[fl2r](G)p.r(A)p.[fl2r](C)p.r(A)p.[fl2r](U)p.r(U)p.[fl2r](U)p.r(C)p.[fl2r](G)p.r(T)p.r(T)}|RNA2{r(C)p.[fl2r](G)p.r(A)p.r(A)p.r(A)p.r(U)p.[fl2r](G)p.r(U)p.r(C)p.r(A)p.r(C)p.[fl2r](G)p.[fl2r](G)p.r(U)p.r(C)p.r(U)p.r(C)p.r(C)p.r(U)p.r(T)p.r(T)}$$$RNA1{StrandType:ss}|RNA2{StrandType:as}$” the target mRNA knockdown was 33%. With “RNA1{[fl2r](A)p.r(G)p.[fl2r](U)p.r(U)p.[fl2r](A)p.r(A)p.[fl2r](C)p.r(C)p.[fl2r](C)p.r(G)p.[fl2r](G)p.r(G)p.[fl2r](A)p.r(C)p.[fl2r](U)p.r(U)p.[fl2r](G)p.r(G)p.[fl2r](A)p.r(T)p.r(T)}|RNA2{r(U)p.r(C)p.r(C)p.r(A)p.r(A)p.r(G)p.r(U)p.r(C)p.r(C)p.r(C)p.r(G)p.r(G)p.r(G)p.r(U)p.r(U)p.r(A)p.r(A)p.r(C)p.r(U)p.r(T)p.r(T)}$$$RNA1{StrandType:ss}|RNA2{StrandType:as}$” the target mRNA knockdown was 65%.
